Where a name gives a salt, the structure may show the parent alone. Read-outs that look alike come from different tables or passages of the source. Marks after values point to notes of the source that are not given here.
What was measured:
[1] = target: 5-HT2C (Homo sapiens (Human), UniProt P28335); assay: Ca2+/Fluo-4 assay, stable h5-HT2C-HEK293 cell line; format: cell-based; settings: for 5-HT2C Rmax ± S.E.M: % of the Rmax of 5-HT; for EC50: agonist potency, n = 3-4; for 5-HT2C agonist activity (n.a./w.a.): tested up to 50 μM;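 as to all read-outs here: Agonist-induced intracellular Ca2+ rise read by Fluo-4 fluorescence in HEK293 cells stably expressing the human 5-HT2C receptor, each compound run in duplicate on three or more occasions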
5-HT2C, sequence (P28335 whole entry, looked up): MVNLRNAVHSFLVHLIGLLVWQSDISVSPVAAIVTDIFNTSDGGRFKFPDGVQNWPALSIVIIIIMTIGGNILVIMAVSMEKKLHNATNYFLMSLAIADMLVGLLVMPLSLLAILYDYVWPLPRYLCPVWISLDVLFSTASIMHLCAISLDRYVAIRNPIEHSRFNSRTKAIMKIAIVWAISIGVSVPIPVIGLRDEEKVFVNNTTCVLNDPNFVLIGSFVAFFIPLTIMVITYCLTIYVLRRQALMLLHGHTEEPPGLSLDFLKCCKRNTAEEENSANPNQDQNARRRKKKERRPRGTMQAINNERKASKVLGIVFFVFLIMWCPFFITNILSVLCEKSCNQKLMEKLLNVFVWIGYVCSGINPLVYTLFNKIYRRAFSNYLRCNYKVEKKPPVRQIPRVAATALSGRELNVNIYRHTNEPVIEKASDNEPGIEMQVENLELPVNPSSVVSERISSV
Experimental: The functional properties of the compounds were characterised at stable HEK293 cell lines stably expressing the human 5-HT2A receptor or human 5-HT2C receptor in the Ca^2+/Fluo-4 assay essentially as previously described.^10 Briefly, the cells were split into poly-D-lysine-coated black 96-well plates with clear bottoms (6×10^4 cells/well). The following day the culture medium was aspirated and the cells were incubated in 50 μl assay buffer [Hanks Buffered Saline Solution containing 20 mM HEPES, 1 mM CaCl2, 1 mM MgCl2, 2.5 mM probenecid, pH 7.4] supplemented with 6 mM Fluo-4/AM at 37° C. for 1 hour. Next, the buffer was aspirated, the cells were washed once with 100 μl assay buffer, and then 100 μl assay buffer was added to the cells (in the antagonist experiments the compound was added at this point). […] The compounds were characterized in duplicate at least three times at each cell line.

[2] = target: human 5-HT2A (Homo sapiens (Human), UniProt P28223); assay: cell-based; format: cell-based; settings: for 5-HT2A Rmax ± S.E.M: % of the Rmax of 5-HT; for Selectivity EC50 5-HT2C/EC50 5-HT2A: Ca2+/Fluo-4 assay, bounds are conservative estimates; for EC50: agonist potency, n = 3-4
[3] = read-out: 5-HT2C [pEC50 ± S.E.M.] (converted)
[4] = read-out: 5-HT2A [pEC50 ± S.E.M.] (converted)

Structure (SMILES)	5-HT2C Rmax ± S.E.M [1]	5-HT2A Rmax ± S.E.M [2]	Selectivity EC50 5-HT2C/EC50 5-HT2A [2]	EC50 ([2]; read-out: 5-HT2A EC50)	EC50 [2, 4]	EC50 ([1]; read-out: 5-HT2C EC50)	other results
COc1cc(C(F)(F)F)c(OC)cc1[C@@H]1CCNC1 [Compound 6, (S)-3-(2,5-dimethoxy-4-(trifluoromethyl)phenyl)pyrrolidine]	28 ± 2%	35 ± 4%	3.5	5.4 nM			EC50 [1, 3]: 19.1 nM
COc1cc([C@H]2CCCNC2)c(OC)cc1I [Compound 13, (R)-3-(4-Iodo-2,5-dimethoxyphenyl)piperidine]				260 nM	263 nM		
COc1cc([C@H]2CCCNC2)c(OC)cc1C#N [Compound 15, (R)-2,5-dimethoxy-4-(piperidin-3-yl)benzonitrile]	~13-17^c %			2200 nM		~10000 nM	
COc1cc(C2CNC2)c(OC)cc1Br.Cl [Compound 1, 3-(4-bromo-2,5-dimethoxyphenyl)azetidine hydrochloride]	90 ± 3%	97 ± 3%	3.6		1.58 nM	5.8 nM	
CCOc1cc([C@H]2CCCNC2)c(OC)cc1CC.Cl [Compound 33, (R)-3-(5-ethoxy-4-ethyl-2-methoxyphenyl)piperidine hydrochloride]		89 ± 4%	>10^e	1100 nM	1120 nM		
COc1cc(C(F)(F)F)c(OC)cc1[C@H]1CCCN(C)C1 [Compound 60, (R)3-(2,5-dimethoxy-4-(trifluoromethyl)phenyl)-1-methylpiperidine]		53 ± 8%		1100 nM			5-HT2C agonist activity (n.a./w.a.) [1]: w.a.
COc1cc([C@H]2CCCNC2)c(OC)cc1Cl [Compound 9, (R)-3-(4-Chloro-2,5-dimethoxyphenyl)piperidine]				690 nM		1800 nM	EC50 [1, 3]: 1780 nM
CCc1cc(OC)c([C@H]2CCCNC2)cc1OC [Compound 31, (R)-3-(4-ethyl-2,5-dimethoxyphenyl)piperidine hydrochloride]				110 nM	115 nM	640 nM	
Br.COc1cc([C@@H]2CCNC2)c(OC)cc1Br [Compound 4, (S)-3-(4-bromo-2,5-dimethoxyphenyl)pyrrolidine Hydrobromide]	16 ± 3%	39 ± 4%	2.3	7.7 nM			EC50 [1, 3]: 17.8 nM
CCN1CCC[C@@H](c2cc(OC)c(C(F)(F)F)cc2OC)C1 [Compound 59, (S)-3-(2,5-dimethoxy-4-(trifluoromethyl)phenyl)-1-ethylpiperidine]		44 ± 3%	>30^e	1500 nM			5-HT2C agonist activity (n.a./w.a.) [1]: w.a.; loss of potency at 5-HT2A compared to compound 8 (factor) ([2]; nitrogen substituents (tertiary amines)): ~80
CCOc1cc(C(F)(F)F)c(OC)cc1[C@H]1CCCNC1.Cl [Compound 29, (R)-3-(2-ethoxy-5-methoxy-4-(trifluoromethyl)phenyl)piperidine hydrochloride]		77 ± 7%		410 nM		2700 nM	EC50 [1, 3]: 2750 nM
COc1cc([C@H]2CCCNC2)c(OC)cc1C [Compound 23, (R)-3-(2,5-dimethoxy-4-methylphenyl)piperidine hydrochloride]				260 nM	263 nM	1200 nM	
COc1cc([C@H]2CCCNC2)ccc1C(F)(F)F.Cl [Compound 48, (R)-3-(3-methoxy-4-(trifluoromethyl)phenyl)piperidine hydrochloride]		68 ± 7%	>50^e	1800 nM			
CCOc1cc(C(F)(F)F)c(OCC)cc1[C@H]1CCCNC1.Cl [Compound 21, (R)-3-(2,5-diethoxy-4-(trifluoromethyl)phenyl)piperidine hydrochloride]		69 ± 4%	>10^e	3000 nM			
COc1cc(C(F)(F)F)c(SC)cc1[C@H]1CCCNC1.Cl [Compound 44, (R)-3-(2-methoxy-5-(methylthio)-4-(trifluoromethyl)phenyl)piperidine hydrochloride]	50 ± 2%	96 ± 6%	9.3	71 nM		660 nM	
COc1cc(C(F)(F)F)ccc1[C@H]1CCCNC1 [Compound 52, (R)-3-(2-methoxy-4-(trifluoromethyl)phenyl)piperidine hydrochloride]		77 ± 2%		480 nM		1400 nM	
CCCCc1cc(OC)c([C@H]2CCCNC2)cc1OC [Compound 56, (R)-3-(4-butyl-2,5-dimethoxyphenyl)piperidine hydrochloride]				340 nM	347 nM	1600 nM	
COc1cc([C@H]2CCCNC2)c(OC2CC2)cc1C(F)(F)F [Compound 54, (R)-3-(2-cyclopropoxy-5-methoxy-4-(trifluoromethyl)phenyl)piperidine hydrochloride]	~46-63^c %	76 ± 4%		1800 nM	1780 nM	3000 to 10000 nM	
CCSc1cc([C@H]2CCCNC2)c(OC)cc1C(F)(F)F.Cl [Compound 46, (R)-3-(2-methoxy-5-(ethylthio)-4-(trifluoromethyl)phenyl)piperidine hydrochloride]	53 ± 5%	97 ± 2%	7.4	150 nM	145 nM	1100 nM	EC50 [1, 3]: 1070 nM
COc1cc(C(F)(F)F)c(OC)cc1C1CNC1.Cl [Compound 2, 3-(2,5-dimethoxy-4-(trifluoromethyl)phenyl)azetidine Hydrochloride]	87 ± 4%	95 ± 2%	5.2		1 nM	5.2 nM	
CCN1CCC[C@H](c2cc(OC)c(C(F)(F)F)cc2OC)C1 [Compound 58, (R)-3-(2,5-dimethoxy-4-(trifluoromethyl)phenyl)-1-ethylpiperidine]							5-HT2C agonist activity (n.a./w.a.) [1]: w.a.; 5-HT2A agonist activity (n.a./w.a.) ([2]; tested up to 50 μM): w.a. [@ 2-10-50
COc1cc([C@@H]2CCCNC2)ccc1C(F)(F)F.Cl [Compound 49, (S)-3-(3-methoxy-4-(trifluoromethyl)phenyl)piperidine Hydrochloride]	35 ± 3%	65 ± 3%	0.51	2500 nM	2450 nM	1300 nM	EC50 [1, 3]: 1260 nM
COc1cc(C(F)(F)F)c(OC)cc1[C@H]1CCNC1 [Compound 5, (R)-3-(2,5-dimethoxy-4-(trifluoromethyl)phenyl)pyrrolidine]	65 ± 4%	45 ± 1%	3.7	11 nM	10.5 nM		EC50 [1, 3]: 40.7 nM
COc1cc(C(F)(F)F)c(OC)cc1[C@H]1CCCNC1 [Compound 7, (R)-3-(2,5-Dimethoxy-4-(trifluoromethyl)phenyl)piperidine hydrochloride]						860 nM	
COc1cc(CCNCc2ccccc2O)c(OC)cc1C#N [drawing 23, reference compound]	96 ± 7%						EC50 ([1]; 5-HT2C EC50 (nM)): 47 nM
CCOc1cc([C@H]2CCCNC2)c(OC)cc1C(F)(F)F.Cl [Compound 19, (R)-3-(5-ethoxy-2-methoxy-4-(trifluoromethyl)phenyl)piperidine hydrochloride]		86 ± 6%		320 nM	316 nM		
CCOc1cc([C@H]2CCCNC2)c(OCC)cc1CC.Cl [Compound 40, (R)-3-(2,5-diethoxy-4-ethylphenyl)piperidine hydrochloride]		~61-74^c %	>3^e	7000 to 10000 nM			
CCOc1cc(CC)c(OC)cc1[C@H]1CCCNC1 [Compound 42, (R)-3-(2-ethoxy-4-ethyl-5-methoxyphenyl)piperidine]		80 ± 9%	>10^e	1500 nM			
COc1cc([C@H]2CCCNC2)c(OC)cc1SC(C)C [Compound 25, (R)-3-(4-(isopropylthio)-2,5-dimethoxyphenyl)piperidine]				290 nM			

— patent publication US11642336B2, “5-HT2A agonists for use in treatment of depression” (priority 2019, dated 2023)
